Assay results: patent publication US10246456B2, “IRAK4 inhibiting agents” (BIOGEN MA INC., priority 2014, dated 2019)

How the values were obtained:
IL-6 in A549 cells = assay: Cell-based IL-6 ELISA assay in IL-1beta stimulated A549 cells; conditions: 2 ng/ml human IL-1beta overnight
Method: The cell-based assays is based on IL-6 ELISA quantification. Briefly, A549 cells are cultured in DMEM with 10% FBS medium. When cells reach 80% confluence they are trypsin treated and seeded 180 ul/well in 96-well plate at 2.5×10^4 cells/well. Then, 20 ul of compound serial dilutions (starting at 10 uM, 10 points) are added to the cell plate; incubate for 30 min at 37 C and stimulated with 2 ng/ml human IL-1beta 37 C, 5% CO2 overnight. The next day 100 ul of cell supernatant per well are analyzed on a Human IL-6 Quantikine ELISA kit from R&D Systems.

IRAK4 = IRAK4 (Homo sapiens (Human), UniProt Q9NWZ3); assay: IRAK-4 AlphaScreen biochemical kinase assay; conditions: 1 nM IRAK4, 1 mM ATP, 3.5 h at RT
How it was run: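 AlphaScreen read-out: streptavidin beads bind the biotinylated peptide and protein A beads bind the anti-phosphothreonine antibody, so energy transfer reports phosphorylation of the peptide. The kinase is human IRAK-4.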

IRAK4, sequence (Q9NWZ3 whole entry, species assumed): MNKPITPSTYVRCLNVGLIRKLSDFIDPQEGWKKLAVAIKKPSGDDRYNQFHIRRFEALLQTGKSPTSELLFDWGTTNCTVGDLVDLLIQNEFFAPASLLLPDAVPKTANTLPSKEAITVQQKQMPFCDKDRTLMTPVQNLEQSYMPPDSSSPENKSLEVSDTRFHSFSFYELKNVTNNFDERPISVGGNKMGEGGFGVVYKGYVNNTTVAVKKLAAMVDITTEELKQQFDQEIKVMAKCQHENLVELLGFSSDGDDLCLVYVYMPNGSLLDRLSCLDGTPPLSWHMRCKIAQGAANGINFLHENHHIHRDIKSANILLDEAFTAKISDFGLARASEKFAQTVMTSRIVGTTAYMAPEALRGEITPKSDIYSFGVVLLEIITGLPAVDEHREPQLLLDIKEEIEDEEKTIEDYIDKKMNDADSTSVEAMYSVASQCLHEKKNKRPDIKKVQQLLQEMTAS

| Structure (SMILES) | EC50 (IL-6 in A549 cells) | IC50 (IRAK4) |
| --- | --- | --- |
| CCC[C@H](N)c1cccc(-c2cc(N3CCS(=O)(=O)CC3)c3cnn(-c4cccc(CO)n4)c3c2)n1 [Example 337, (S)-4-(6-(6-(1-aminobutyl)pyridin-2-yl)-1-(6-(hydroxymethyl)pyridin-2-yl)-1H-indazol-4-yl)thiomorpholine 1,1-dioxide] | ≤ 1000 nM | < 100 nM |
| CCC[C@H](N)c1cccc(-c2cc(N3CCSCC3)c3cnn(-c4cccc(CO)n4)c3c2)n1 [Example 338, (S)-(6-(6-(6-(1-aminobutyl)pyridin-2-yl)-4-thiomorpholino-1H-indazol-1-yl)pyridin-2-yl)methanol] | ≤ 1000 nM | < 100 nM |
| CCC[C@H](N)c1cccc(-c2cc(N3CC(C)(C)C3)c3cnn(-c4cccc(CO)n4)c3c2)n1 [Example 340, (S)-(6-(6-(6-(1-aminobutyl)pyridin-2-yl)-4-(3,3-dimethylazetidin-1-yl)-1H-indazol-1-yl)pyridin-2-yl)methanol] | ≤ 1000 nM | < 100 nM |
| CCC[C@H](N)c1cccc(-c2cc(N3CCC(C(=O)O)C3)c3cnn(-c4cccc(CO)n4)c3c2)n1 (stereo partly drawn) [Example 341, 1-(6-(6-((S)-1-aminobutyl)pyridin-2-yl)-1-(6-(hydroxymethyl)pyridin-2-yl)-1H-indazol-4-yl)pyrrolidine-3-carboxylic acid] | ≤ 1000 nM | < 100 nM |
| CCC[C@H](N)c1cccc(-c2cc(N3CCCC3)c3cnn(-c4cccc(CO)n4)c3c2)n1 [Example 342, (S)-(6-(6-(6-(1-aminobutyl)pyridin-2-yl)-4-(pyrrolidin-1-yl)-1H-indazol-1-yl)pyridin-2-yl)methanol] | ≤ 1000 nM | < 100 nM |
| CCC[C@H](N)c1cccc(-c2cc(N3CCN(C)CC3)c3cnn(-c4cccc(CO)n4)c3c2)n1 [Example 343, (S)-(6-(6-(6-(1-aminobutyl)pyridin-2-yl)-4-(4-methylpiperazin-1-yl)-1H-indazol-1-yl)pyridin-2-yl)methanol] | ≤ 1000 nM | < 100 nM |
| CCC[C@H](N)c1cccc(-c2cc(NCC(C)(C)CCl)c3cnn(-c4cccc(CO)n4)c3c2)n1 [Example 344, (S)-(6-(6-(6-(1-aminobutyl)pyridin-2-yl)-4-((3-chloro-2,2-dimethylpropyl)amino)-1H-indazol-1-yl)pyridin-2-yl)methanol] | ≤ 1000 nM | < 100 nM |
| CCC[C@H](N)c1cccc(-c2cc(N3CCC(F)(F)CC3)c3cnn(-c4cccc(CO)n4)c3c2)n1 [Example 346, (S)-(6-(6-(6-(1-aminobutyl)pyridin-2-yl)-4-(4,4-difluoropiperidin-1-yl)-1H-indazol-1-yl)pyridin-2-yl)methanol] | ≤ 1000 nM | < 100 nM |
| CCC[C@H](N)c1cccc(-c2cc(N3CCCC(F)(F)C3)c3cnn(-c4cccc(CO)n4)c3c2)n1 [Example 347, (S)-(6-(6-(6-(1-aminobutyl)pyridin-2-yl)-4-(3,3-difluoropiperidin-1-yl)-1H-indazol-1-yl)pyridin-2-yl)methanol] | ≤ 1000 nM | < 100 nM |
| CCC[C@H](N)c1cccc(-c2cc(N3CC(C(=O)O)C3)c3cnn(-c4cccc(CO)n4)c3c2)n1 [Example 348, (S)-1-(6-(6-(1-aminobutyl)pyridin-2-yl)-1-(6-(hydroxymethyl)pyridin-2-yl)-1H-indazol-4-yl)azetidine-3-carboxylic acid] | ≤ 1000 nM | < 100 nM |
| CCC[C@H](N)c1cccc(-c2cc(N3CCCC(C(=O)O)C3)c3cnn(-c4cccc(CO)n4)c3c2)n1 (stereo partly drawn) [Example 349, 1-(6-(6-((S)-1-aminobutyl)pyridin-2-yl)-1-(6-(hydroxymethyl)pyridin-2-yl)-1H-indazol-4-yl)piperidine-3-carboxylic acid] | ≤ 1000 nM | < 100 nM |
| CCC[C@H](N)c1cccc(-c2cc(N3CCC(C(=O)O)CC3)c3cnn(-c4cccc(CO)n4)c3c2)n1 [Example 350, (S)-1-(6-(6-(1-aminobutyl)pyridin-2-yl)-1-(6-(hydroxymethyl)pyridin-2-yl)-1H-indazol-4-yl)piperidine-4-carboxylic acid] | 1000 to 10000 nM | < 100 nM |
| C[C@H](N)c1cccc(-c2cc(-n3ccnc3)c3cnn(-c4cccc(CO)n4)c3c2)n1 [Example 354, (S)-(6-(6-(6-(1-aminoethyl)pyridin-2-yl)-4-(1H-imidazol-1-yl)-1H-indazol-1-yl)pyridin-2-yl)methanol] | ≤ 1000 nM | < 100 nM |
| C[C@H](N)c1cccc(-c2cc(-n3cncn3)c3cnn(-c4cccc(CO)n4)c3c2)n1 [Example 355, (S)-(6-(6-(6-(1-aminoethyl)pyridin-2-yl)-4-(1H-1,2,4-triazol-1-yl)-1H-indazol-1-yl)pyridin-2-yl)methanol] | ≤ 1000 nM | < 100 nM |
| C[C@H](N)c1cccc(-c2cc(-n3ccc(C(F)(F)F)n3)c3cnn(-c4cccc(CO)n4)c3c2)n1 [Example 356, (S)-(6-(6-(6-(1-aminoethyl)pyridin-2-yl)-4-(3-(trifluoromethyl)-1H-pyrazol-1-yl)-1H-indazol-1-yl)pyridin-2-yl)methanol] | 1000 to 10000 nM | < 100 nM |
| C[C@H](N)c1cccc(-c2cc(-c3ccn(C)n3)c3cnn(-c4cccc(CO)n4)c3c2)n1 [Example 357, (S)-(6-(6-(6-(1-aminoethyl)pyridin-2-yl)-4-(1-methyl-1H-pyrazol-3-yl)-1H-indazol-1-yl)pyridin-2-yl)methanol] | ≤ 1000 nM | < 100 nM |
| C[C@H](N)c1cccc(-c2cc(-c3ncco3)c3cnn(-c4cccc(CO)n4)c3c2)n1 [Example 359, (S)-(6-(6-(6-(1-aminoethyl)pyridin-2-yl)-4-(oxazol-2-yl)-1H-indazol-1-yl)pyridin-2-yl)methanol] | ≤ 1000 nM | < 100 nM |
| CC[C@H](N)c1cccc(-c2cc(-c3ccn(C)n3)c3cnn(-c4cccc(CO)n4)c3c2)n1 [Example 360, (S)-(6-(6-(6-(1-aminopropyl)pyridin-2-yl)-4-(1-methyl-1H-pyrazol-3-yl)-1H-indazol-1-yl)pyridin-2-yl)methanol] | ≤ 1000 nM | < 100 nM |
| CCC[C@H](N)c1cccc(-c2cc(-c3ccn(C)n3)c3cnn(-c4cccc(CO)n4)c3c2)n1 [Example 361] | ≤ 1000 nM | < 100 nM |

More lines, now with the values ahead:

| EC50 (IL-6 in A549 cells) | IC50 (IRAK4) | Structure (SMILES) |
| --- | --- | --- |
| ≤ 1000 nM | < 100 nM | CCC[C@H](N)c1cccc(-c2cc(NC)c3cnn(-c4cccc(CO)n4)c3c2)n1 [Example 327, (S)-(6-(6-(6-(1-aminobutyl)pyridin-2-yl)-4-(methylamino)-1H-indazol-1-yl)pyridin-2-yl)methanol] |
| ≤ 1000 nM | < 100 nM | CCC[C@H](N)c1cccc(-c2cc(NCC)c3cnn(-c4cccc(CO)n4)c3c2)n1 [Example 328, (S)-(6-(6-(6-(1-aminobutyl)pyridin-2-yl)-4-(ethylamino)-1H-indazol-1-yl)pyridin-2-yl)methanol] |
| ≤ 1000 nM | < 100 nM | CCC[C@H](N)c1cccc(-c2cc(N3CCC(O)CC3)c3cnn(-c4cccc(CO)n4)c3c2)n1 [Example 329, (S)-1-(6-(6-(1-aminobutyl)pyridin-2-yl)-1-(6-(hydroxymethyl)pyridin-2-yl)-1H-indazol-4-yl)piperidin-4-ol] |
| ≤ 1000 nM | < 100 nM | CCC[C@H](N)c1cccc(-c2cc(N3CCCC(O)C3)c3cnn(-c4cccc(CO)n4)c3c2)n1 (stereo partly drawn) [Example 330, 1-(6-(6-((S)-1-aminobutyl)pyridin-2-yl)-1-(6-(hydroxymethyl)pyridin-2-yl)-1H-indazol-4-yl)piperidin-3-ol] |
| ≤ 1000 nM | < 100 nM | CCC[C@H](N)c1cccc(-c2cc(N3CC(F)(F)C3)c3cnn(-c4cccc(CO)n4)c3c2)n1 [Example 331, (S)-(6-(6-(6-(1-aminobutyl)pyridin-2-yl)-4-(3,3-difluoroazetidin-1-yl)-1H-indazol-1-yl)pyridin-2-yl)methanol] |
| ≤ 1000 nM | < 100 nM | CCC[C@H](N)c1cccc(-c2cc(N3CC(CO)(CCl)C3)c3cnn(-c4cccc(CO)n4)c3c2)n1 [Example 332, (S)-(1-(6-(6-(1-aminobutyl)pyridin-2-yl)-1-(6-(hydroxymethyl)pyridin-2-yl)-1H-indazol-4-yl)-3-(chloromethyl)azetidin-3-yl)methanol] |
| ≤ 1000 nM | < 100 nM | CCC[C@H](N)c1cccc(-c2cc(N3CCC(F)(F)C3)c3cnn(-c4cccc(CO)n4)c3c2)n1 [Example 333, (S)-(6-(6-(6-(1-aminobutyl)pyridin-2-yl)-4-(3,3-difluoropyrrolidin-1-yl)-1H-indazol-1-yl)pyridin-2-yl)methanol] |
| ≤ 1000 nM | < 100 nM | CCC[C@H](N)c1cccc(-c2cc(N3CCOC(C)C3)c3cnn(-c4cccc(CO)n4)c3c2)n1 (stereo partly drawn) [Example 334, (6-(6-(6-((S)-1-aminobutyl)pyridin-2-yl)-4-(2-methylmorpholino)-1H-indazol-1-yl)pyridin-2-yl)methanol] |
| ≤ 1000 nM | < 100 nM | CCC[C@H](N)c1cccc(-c2cc(N3CC(C)OC(C)C3)c3cnn(-c4cccc(CO)n4)c3c2)n1 (stereo partly drawn) [Example 335, (6-(6-(6-((S)-1-aminobutyl)pyridin-2-yl)-4-(2,6-dimethylmorpholino)-1H-indazol-1-yl)pyridin-2-yl)methanol] |
| ≤ 1000 nM | < 100 nM | CCC[C@H](N)c1cccc(-c2cc(NCC(CCl)C(=O)O)c3cnn(-c4cccc(CO)n4)c3c2)n1 (stereo partly drawn) [Example 336, 3-((6-(6-((S)-1-aminobutyl)pyridin-2-yl)-1-(6-(hydroxymethyl)pyridin-2-yl)-1H-indazol-4-yl)amino)-2-(chloromethyl)propanoic acid] |
